Measured values published in the NIST ThermoML archive (doi:10.1016/j.tca.2019.05.006).

Assay: molar heat capacity at constant pressure
Conditions: 101.33 kPa, Crystal, DSC

[Cu+2].[O-2] [copper(II) oxide]
Conditions | molar heat capacity at constant pressure [J/K/mol]
300 K | 44.4
325 K | 45.8
350 K | 46.8
375 K | 47.7
400 K | 48.5
425 K | 49.2
450 K | 49.7
475 K | 50.3
500 K | 50.8
525 K | 51.2
550 K | 51.6
575 K | 51.9
600 K | 52.3
625 K | 52.6
650 K | 52.9
675 K | 53.2
700 K | 53.5
725 K | 53.8
750 K | 54
775 K | 54.3
800 K | 54.5
825 K | 54.7
